≈ marks a conversion by molar mass, not a printed value. Positions of bridges follow the written chain, without caps; N, C: chain ends. Residues, ends and D or L forms follow the SMILES beside them. No end group written: not given here.
Assays:
E. faecalis JH2-2 08048 = assay: microbe, parasite or virus in culture; assay type: cell-based, Enterococcus faecalis; conditions: peptide alone, without vancomycin; VanB
Experimental: (§1) The MIC of vancomycin was determined by the microdilution method described in the guidelines of the European Committee on Antimicrobial Susceptibility Testing (EUCAST 2024, v14.0 Breakpoint Tables).[58] For enterococci, GM17 medium was used instead of CAMH medium since enterococci cannot degrade starch, the main carbohydrate of MH medium. 2-fold serial dilutions of the tested antibiotic were performed to obtain concentrations ranging from 0.5 to 512 μg/mL. LP were then added to the wells at the desired concentration. The medium was inoculated with a final inoculum of 5 × 10^5 CFU/mL. The MIC is the lowest concentration that prevents visible in vitro growth.

E. faecalis merz96 = assay: microbe, parasite or virus in culture; assay type: cell-based, Enterococcus faecalis; conditions: peptide alone, without vancomycin; VanB
E. faecalis HIP11704 = assay: microbe, parasite or virus in culture; assay type: cell-based, Enterococcus faecalis; conditions: peptide alone, without vancomycin; VanA
VanS^127-384 [1] = target: T1, VanS^127-384 (Enterococcus faecium, UniProt Q06240); assay: biochemical; assay type: binding
T1 construct: only the C-terminal His6-tagged VanA-type VanS^127-384 could be obtained as a soluble protein; made in house; host or cells: E. coli BL21(DE3), plasmid pET29b(+) vanS^127-384

E. faecium 1 231 502 = assay: microbe, parasite or virus in culture; assay type: cell-based, Enterococcus faecium; conditions: peptide alone, without vancomycin; VanA
E. faecium 1 231 410 = assay: microbe, parasite or virus in culture; assay type: cell-based, Enterococcus faecium; conditions: peptide alone, without vancomycin; VanA
[2] = tested on: all tested E. faecalis and E. faecium strains; assay: Growth inhibition / MIC, strain panel; assay type: cell-based; conditions: peptide alone
E. faecium 1 230 933 = assay: microbe, parasite or virus in culture; assay type: cell-based, Enterococcus faecium; conditions: peptide alone, without vancomycin; VanA
E. faecalis V583 ΔvanB = assay: microbe, parasite or virus in culture; assay type: cell-based, Enterococcus faecalis; conditions: peptide alone, without vancomycin; van-
E. faecalis V583 = assay: microbe, parasite or virus in culture; assay type: cell-based, Enterococcus faecalis; conditions: peptide alone, without vancomycin; VanB
S. aureus T-SAR12 VRSA.B = assay: microbe, parasite or virus in culture; assay type: cell-based, Staphylococcus aureus; conditions: peptide alone, without vancomycin; VanB
Experimental: as §1

S. aureus T-SAR12 VRSA.A = assay: microbe, parasite or virus in culture; assay type: cell-based, Staphylococcus aureus; conditions: peptide alone, without vancomycin; VanA
Experimental: as §1

[3] = tested on: VanB- or VanA-type strains; conditions: same among the different VanB- or VanA-type strains
Experimental: as §1

S. aureus 16038 (VISA) = assay: microbe, parasite or virus in culture; assay type: cell-based, Staphylococcus aureus; conditions: peptide alone, without vancomycin; van-
[4] = tested on: Galleria mellonella larvae; assay: Toxicity toward larvae; assay type: in vivo; conditions: siamycin I-loaded nanoemulsion, about 18 mg/kg, 90 min and 24 h, observed to 96 h
Experimental: Larvae were infected with the wild-type strain E. faecalis V583, the isogenic vancomycin-sensitive mutant V583 ΔvanB, or an equivalent volume of saline solution. At t90min and t24h post-infection (p.i.), the larvae were treated with the nanoemulsion alone (referred to as formulation), the nanoemulsion loaded with siamycin I (3.92 μg/larvae; about 18 mg/kg), vancomycin (1 μg/larvae; about 4.6 mg/kg) alone, or a combination of both. Larvae survival was assessed, and statistical analysis was performed at the endpoint t96h.
To assess the C1LPs' efficacy as treatment of E. faecalis infection, the strains V583 or V583 ΔvanB were grown without previous C1LP exposition. 20 larvae were used for each condition. At 1.5 and 24 h p.i., larvae were injected with 4.76 mg of vancomycin per kilogram and/or 18 mg of siamycin I per kilogram, or the equivalent volume of nanoemulsion as a control. Larvae killing was then monitored between 1.5 and 96 h p.i.. Data and statistical analysis were performed using the Kaplan-Meier R package and the log -rank test, respectively.

VanS^127-384 [5] = target: T2, VanS^127-384 (Enterococcus faecium, UniProt Q06240); assay: biochemical; assay type: binding; conditions: 10 μM VanS, pH 7.5; siamycin I 6 to 90 μM; sviceucin 12 to 180 μM; microcin J25 25 to 200 μM
T2 construct: only the C-terminal His6-tagged VanA-type VanS^127-384 could be obtained as a soluble protein; made in house; host or cells: E. coli BL21(DE3), plasmid pET29b(+) vanS^127-384
T2 sequence (Q06240 whole entry, looked up): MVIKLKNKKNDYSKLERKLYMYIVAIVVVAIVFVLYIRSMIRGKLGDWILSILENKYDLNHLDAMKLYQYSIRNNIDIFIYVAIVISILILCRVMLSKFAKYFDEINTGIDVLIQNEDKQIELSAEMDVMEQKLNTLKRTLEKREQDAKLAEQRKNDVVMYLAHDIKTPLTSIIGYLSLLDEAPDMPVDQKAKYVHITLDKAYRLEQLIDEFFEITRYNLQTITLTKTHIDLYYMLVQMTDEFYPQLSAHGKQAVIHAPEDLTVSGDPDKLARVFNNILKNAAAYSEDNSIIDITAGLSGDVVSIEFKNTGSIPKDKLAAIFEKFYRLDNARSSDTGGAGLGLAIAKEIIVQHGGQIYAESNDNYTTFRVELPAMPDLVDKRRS
Experimental: Protein purification was carried out on a HisTrap FF Crude 5 mL column (Cytiva, USA) using the ÄKTA start device (Cytiva, USA), following the manufacturer’s recommendations. The column was equilibrated with the purification buffer and then loaded with the soluble fraction. The protein of interest was washed and eluted with an imidazole gradient of 10 mM–500 mM in purification buffer. The purified protein was desalted and concentrated on a Vivaspin 6 30 kDa MWCO column (Cytiva, USA) according to the manufacturer’s recommendations. Protein concentration was determined with the Pierce BCA Protein Assay Kit (Thermo Scientific, USA) according to the manufacturer’s recommendations and then stored at −80°C.
All the experiments were performed in 96 Fast PCR Plates full skirt (Sarstedt, Germany) and in CFX96 Real-Time PCR system (BioRad, USA). Screening was conducted (Table S7) to determine the best buffer and ratios of protein and SYPRO Orange Protein Gel Stain (Sigma-Aldrich, USA). […] The Tm of each well was determined on the Melt Curve panel with a negative peak type. Tm means were calculated for each condition before model analysis. ΔT was calculated from the subtraction of the Tm of the protein with the buffer alone and the Tm with the lasso peptides. […]

[6] = target: T3, VanS^127-384 (VanA-type, C-His6) (Enterococcus faecium, UniProt Q06240); assay: biochemical; conditions: 0–100 μM peptide
T3 construct: only the C-terminal His6-tagged VanA-type VanS^127-384 could be obtained as a soluble protein; made in house; host or cells: E. coli BL21(DE3), plasmid pET29b(+) vanS^127-384
T3 sequence (Q06240 whole entry, looked up): T2 sequence (Q06240 whole entry, looked up)
Experimental: (§2) Terrific medium[68] […] The culture was incubated at 37°C with agitation at 180 rpm. Induction of protein expression was achieved by adding IPTG to a final concentration of 0.1 mM when the bacterial density reached an OD600 of 0.5. The culture was then incubated for 20 h at 25°C with agitation at 180 rpm. The cells were then washed twice in purification buffer (20 mM sodium phosphate buffer, 500 mM NaCl, 5 mM MgCl2, 10 mM imidazole (pH 7.4)). Cells were treated with lysozyme at 1 mg/mL final concentration for 30 min at 4°C and lysed by sonication with the Fisherbrand Model 120 Sonic Dismembrator (Fisher scientific, USA). The total fraction recovered was centrifuged at 10000 rpm at 4°C for 30 to 45 min and only the supernatant, representing the soluble fraction, was recovered for purification.
(§3) Protein purification was carried out on a HisTrap FF Crude 5 mL column (Cytiva, USA) using the ÄKTA start device (Cytiva, USA), following the manufacturer’s recommendations. […] Protein concentration was determined with the Pierce BCA Protein Assay Kit (Thermo Scientific, USA) according to the manufacturer’s recommendations and then stored at −80°C.
(§4) The phosphorylation assay followed reported procedure with some modifications.[38] […] The reaction was allowed to start by adding ATP and NADH, and monitored continuously at 340 nm at 37°C by a microplate reader (POLARstar OMEGA, BMG Labtech, Germany). […]

[7] = target: T4, VanS^127-384 (VanA-type, C-His6) (Enterococcus faecium, UniProt Q06240); assay: biochemical
T4 construct: only the C-terminal His6-tagged VanA-type VanS^127-384 could be obtained as a soluble protein; made in house; host or cells: E. coli BL21(DE3), plasmid pET29b(+) vanS^127-384
Experimental: as §2, §3, §4

| Compound | Lasso peptide MIC (E. faecalis JH2-2 08048) [µM] | Lasso peptide MIC (E. faecalis merz96) [µM] | Lasso peptide MIC (E. faecalis HIP11704) [µM] | Kd (VanS^127-384 [1]) [µM] | Lasso peptide MIC (E. faecium 1 231 502) [µM] | Lasso peptide MIC (E. faecium 1 231 410) [µM] | MIC, complete growth inhibition [2] | Lasso peptide MIC (E. faecium 1 230 933) [µM] | Lasso peptide MIC (E. faecalis V583 ΔvanB) [µM] | Lasso peptide MIC (E. faecalis V583) [µM] | Lasso peptide MIC (S. aureus T-SAR12 VRSA.B) [µM] | Lasso peptide MIC (S. aureus T-SAR12 VRSA.A) [µM] | MIC of peptide in absence of vancomycin [3] [µM] | Lasso peptide MIC (S. aureus 16038 (VISA)) [µM] | toxicity toward the larvae [4] | effect on melting temperature (Tm) of VanS^127-384, in words (VanS^127-384 [5]) | effect on VanS^127-384 autophosphorylation, in words [6] | IC50 [7] [µM] |
| --- | --- | --- | --- | --- | --- | --- | --- | --- | --- | --- | --- | --- | --- | --- | --- | --- | --- | --- |
| CC[C@H](C)[C@@H]1NC(=O)[C@H](C)NC(=O)[C@H](Cc2ccc(O)cc2)NC(=O)CNC(=O)[C@@H]2CSSC[C@@H]3NC(=O)C[C@H](NC(=O)[C@H](CC(N)=O)NC(=O)[C@H](CSSC[C@@H](C(=O)N[C@@H](Cc4ccccc4)C(=O)N[C@@H](Cc4c[nH]c5ccccc45)C(=O)O)NC(=O)[C@H](C(C)C)NC1=O)NC(=O)[C@H](CO)NC(=O)CNC(=O)[C@H](C(C)C)NC(=O)CNC(=O)[C@H](CC(C)C)NC3=O)C(=O)N[C@@H](Cc1ccccc1)C(=O)N[C@@H](C)C(=O)NCC(=O)N2 [Siamycin I] (CLGVGSCNDFAGCGYAIVCFW-OH; disulfide 1-13, 7-19; lactam N-9) | 5 | 5 | 5 | 38 ± 1 | 5 | 5 | 5 µM (≈ 10.8 µg/mL) | 5 | 5 | 5 | 5 | 5 | 5 | 5 | did not exhibit toxicity toward the larvae | – | – | – |
| Microcin J25: unrelated lasso peptide microcin J25 (GGAGHVPEYFVGIGTPISFYG; not fully specified) | – | – | – | – | – | – | – | – | – | – | – | – | – | – | – | did not affect the Tm of VanS^127-384 | had no effect on VanS^127-384 | – |
| CC[C@H](C)[C@@H]1NC(=O)[C@H](Cc2c[nH]c3ccccc23)NC(=O)[C@H](C)NC(=O)[C@H]([C@@H](C)O)NC(=O)CNC(=O)[C@@H]2CSSC[C@@H]3NC(=O)C[C@H](NC(=O)[C@H]([C@@H](C)O)NC(=O)[C@H](CSSC[C@@H](C(=O)N[C@H](C(=O)O)C(C)C)NC1=O)NC(=O)[C@H](CC(=O)O)NC(=O)CNC(=O)CNC(=O)[C@H](Cc1c[nH]c4ccccc14)NC(=O)[C@H](C(C)C)NC3=O)C(=O)N[C@@H](Cc1ccccc1)C(=O)N[C@@H](CC(C)C)C(=O)NCC(=O)N2 [Sviceucin] (CVWGGDCTDFLGCGTAWICV-OH; disulfide 1-13, 7-19; lactam N-9) | >10 | >10 | >10 | 52 ± 1.6 | >10 | >10 | above 10 μM | >10 | >10 | >10 | >10 | >10 | > 10 | >10 | – | – | – | 10.8 ± 1.5 |

Source: article PMC11872507, “Lasso peptides sviceucin and siamycin I exhibit anti-virulence activity and restore vancomycin effectiveness in vancomycin-resistant pathogens” (iScience, 2025)
